Source: US20220017516A1, “LOX INHIBITORS” (THE INSTITUTE OF CANCER RESEARCH: ROYAL CANCER HOSPITAL, priority 2018, published 2022)

Legend:
Type in all cases: in vivo, mice
[1] = test system: MDA-MB-231 human breast adenocarcinoma; experiment: MDA-MB-231 xenografts, primary tumour volume; conditions: T/C of average tumour volume; 200 mg/kg po qd; p<0.05
Procedure: (§1) All procedures involving animals were approved by the Animal Welfare and Ethical Review Body of the Institute of Cancer Research and Cancer Research UK Manchester Institute in accordance with National Home Office regulations under the Animals (Scientific Procedures) Act 1986 and according to the guidelines of the Committee of the National Cancer Research Institute Tumour size was determined by caliper measurements of tumour length, width and depth and volume was calculated as volume=0.5236×length×width×depth (mm).
MDA-MB-231 xenografts. […] Tumours and weights are measured twice weekly using calipers and the animals can be imaged using non invasive method by bioluminescence using IVIS 200 imaging machine, weekly using 150 mg/kg luciferin administrate intraperitoneal or subcutaneous. […] Frozen samples kept at −80 degree centigrade until being analyzed and the fixed samples stained according to desired marker.
(§2) For therapeutic efficacy assessment, the ratio of average tumour volume between compound treated and vehicle control treated (T/C) is calculated. […] The efficacy of LOX inhibitors described in this invention, as measured by T/C in breast cancer models is shown in Table 4 and is significant (p<0.05) for all the data presented.

[2] = test system: MMTV-PyMT mammary tumours; experiment: MMTV-PyMT transgenic mouse breast cancer model, primary tumour volume; conditions: T/C of average tumour volume; 200 mg/kg po qd; p<0.05
Procedure: as §1
MMTV-PyMT (Guy et al, 1992) (FVB) female mice were randomized by non-statistical methods to LOX inhibitor treatment groups from day 70 post-birth, when animals had no detectable tumour. Mice were treated daily by oral gavage with LOX inhibitor in vehicle, or daily vehicle (5% DMSO/2.5% Tween20 in water) by oral gavage. Tumour size was determined unblinded by caliper measurements of tumour length, width and depth and volume was calculated as 0.5236×length×width×depth (mm). […]
as §2

[3] = test system: MMTV-PyMT lung metastases; experiment: MMTV-PyMT transgenic mouse breast cancer model, lung metastases quantification; conditions: T/C of average lung metastases number; 200 mg/kg po qd; p<0.05
Procedure: MMTV-PyMT (Guy et al, 1992) (FVB) female mice were randomized by non-statistical methods to LOX inhibitor treatment groups from day 70 post-birth, when animals had no detectable tumour. Mice were treated daily by oral gavage with LOX inhibitor in vehicle, or daily vehicle (5% DMSO/2.5% Tween20 in water) by oral gavage. Tumour size was determined unblinded by caliper measurements of tumour length, width and depth and volume was calculated as 0.5236×length×width×depth (mm). In all experiments, mice were humanely killed and mammary tumours and lungs were collected when the primary tumours reached ethical limits or signs of ill health.
For lung metastases quantification, all mouse tissue samples were fixed in 10% formalin (Sigma) and embedded in paraffin. Samples were sectioned and hematoxylin and eosin (H&E) stained. Samples were imaged with a Leica SCN400 slide scanner. […] Lung metastases number was counted and area was measured using ImageScope. […] The ratio of average metastases surface between compound treated and vehicle control treated (T/C) is calculated. The ratio of average metastases numbers between compound treated and vehicle control treated (T/C) is also calculated. […] The antimetastatic efficacy of LOX inhibitors described in this invention, as measured by T/C in a model of breast cancer metastasising to lungs is shown in Table 4 and is significant (p<0.05) for all the data presented.

With `CCOc1ccc(N2C[C@@H]3C[C@H]2CN3C(=O)CS(=O)(=O)CCN)cc1` [drawing 226] as the compound, how does the “MDA-MB-231 human breast adenocarcinoma - primary tumour (T/C)” value [1] read?
The value was 0.54.

And the “MMT-PyMT breast transgenic model - primary tumour (T/C)” value [2]?
Its value is 0.6.

And the “MMT-PyMT breast transgenic model - metastases a) Count (T/C)” value [3]?
The value was “a) 0.14”.
